These results are taken from US20220313658A1, “YAP Inhibition for Wound Healing” (The Board of Trustees of the Leland Stanford Junior …, priority 2019, published 2022).

The assay relates to mechanically loaded dorsal incisional wounds. The experiment in a line: Mechanical loading of dorsal incisional wounds with Verteporfin treatment. The assay is classed as in vivo, mouse. The method, then: 20 mm-long linear wounds were produced on the dorsum of P60 En-1^Cre-ERT;Ai6 mice and then closed with sutures. On POD 4, a loading device (constructed from 22 mm expansion screws and Luhr plate supports) was secured over each wound with adhesive and simple interrupted sutures. For mice receiving mechanotransduction signaling inhibitor, 30 μL of Verteporfin (1 mg/mL) was injected along the suture line both at POD 0 and POD 4; PBS was injected into wounds for vehicle controls. Device tension was increased by distracting expansion 2 mm every 2 days for 10 days total. Mice with unexpanded devices served as sham surgery controls. On POD 14, wounds were harvested and processed for histology to characterize the effects of increased wound tension on activation of ENFs to scarring pEPFs. In FIG. 2, G-I, a minimum of 4 mice was used for each experimental group.
Tissues were fixed in 2% paraformaldehyde for 16 h at 4° C. Samples were prepared for embedding by soaking in 30% sucrose in PBS for 1 week at 4° C. Samples were then removed from the sucrose solution, and tissue blocks were prepared by embedding in Tissue Tek U.C.T. (Sakura Finetek) under dry ice to achieve rapid freezing. Frozen blocks were mounted on a Thermo Scientific CryoStar NX70 cryostat, and 10 μm-thick sections were transferred to SuperfrostfPlus adhesive slides (Fisher). For hematoxylin and eosin staining, standard protocols were used with no modifications. For immunofluorescent staining, slides were blocked for 1 hr with Power Block (Biogenex) prior to addition of the following primary antibodies: Abeam ab34710 (anti-collagen type I), Abeam ab28340 (anti-CD26), Invitrogen MA5-15915 (anti-Dlk1), Abeam ab51317 (anti-Scat), Abeam ab5694 (anti-α-SMA), Santa Cruz Biotechnology sc-101199 (anti-YAP), Abeam ab7800 (anti-CK14), and Abeam ab52625 (anti-CK19). Slides were then incubated for 1 h with Alexa Fluor 568 or Alexa Fluor 647-conjugated anti-rabbit, anti-rat, or anti-mouse antibodies (Invitrogen). Finally, slides were mounted in Fluoromount-G mounting solution with DAPI (Thermo Fisher). Brightfield images were acquired with a Leica DMI4000B microscope, while fluorescent images were acquired with a Leica DM6000 SP5 upright confocal microscope.
Then, whether mechanical tension similarly promoted ENF-to-EPF transition in vivo was assessed. […]

Take verteporfin: the “Gross appearance of mechanically loaded wounds” value (30 μL of 1 mg/mL injected at POD 0 and POD 4, harvested POD 14) is “grossly resembled control (non-mechanically loaded) wounds”. Also, under “compared to mechanically loaded, non-Verteporfin treated wounds, POD 14”, the “Number of pEPFs (GFP+ cells) in wounds” value is given as “significantly fewer pEPFs”. In addition, where the note is “compared to untreated mechanically loaded wounds, POD 14”, the “YAP and a-SMA expression (immunofluorescent staining)” value is “decreased YAP and a-SMA expression”. Further, the “Number of YAP+ cells in wounds” value (mechanically loaded wounds, POD 14) is “significantly fewer YAP+ cells”.
